Laboratory results: ChEMBL document CHEMBL1201862, “PubChem BioAssay data set” (2004)
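Values below derive from 48-hour exposures of cells grown in 96-well plates, with endpoints linearly interpolated between the two concentrations bracketing the appropriate inhibition level. At the GI50, growth is halved.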 Activity calls are given as the source filed them. Rule as the data show it: active = GI50 up to about 1.1 µM and inactive = higher.

How the values were obtained:
Assay in all cases: growth of human tumour cells (NCI), 48 h
RXF 393 = tested on: RXF 393
NCI-H522 = tested on: NCI-H522
HOP-62 = tested on: HOP-62
SF-268 = tested on: SF-268
HL-60 = tested on: HL-60
UACC-62 = tested on: UACC-62
K562 = tested on: K562
OVCAR-3 = tested on: OVCAR-3
SK-MEL-5 = tested on: SK-MEL-5
UO-31 = tested on: UO-31
UACC-257 = tested on: UACC-257
A498 = tested on: A498
ACHN = tested on: ACHN
KM12 = tested on: KM12
SF-539 = tested on: SF-539
SN12C = tested on: SN12C
NCI-H23 = tested on: NCI-H23
COLO 205 = tested on: COLO 205
MOLT-4 = tested on: MOLT-4
CCRF-CEM = tested on: CCRF-CEM

Measured: GI50

Cc1ccc(C(=O)/C=C/N2CCN(c3cccc(C(F)(F)F)c3)CC2)cc1
inactive: RXF 393 15.7 µM | NCI-H522 17.5 µM | HOP-62 20.7 µM | SF-268 17.3 µM | HL-60 22.8 µM | UACC-62 19.3 µM | K562 18.7 µM | OVCAR-3 14.4 µM | SK-MEL-5 14.9 µM | UO-31 17.5 µM | UACC-257 16.4 µM | A498 15.8 µM | ACHN 23.9 µM | KM12 18.7 µM | SF-539 15.9 µM | SN12C 18.5 µM | NCI-H23 16.8 µM | COLO 205 24.3 µM | MOLT-4 15.1 µM

CC(=O)O[C@H]1[C@@H](N2CCCCC2)C[C@H]2[C@@H]3CC=C4C[C@@H](N5CCCC5)CC[C@]4(C)[C@H]3CC[C@@]21C
inactive: RXF 393 32.7 µM | NCI-H522 > 100 µM | HOP-62 49.8 µM | SF-268 > 100 µM | HL-60 24.9 µM | CCRF-CEM 31.9 µM | UACC-62 > 100 µM | K562 4.07 µM | OVCAR-3 > 100 µM | SK-MEL-5 32.4 µM | UO-31 > 100 µM | UACC-257 30.8 µM | A498 > 100 µM | ACHN > 100 µM | KM12 > 100 µM | SF-539 17.8 µM | SN12C > 100 µM | NCI-H23 > 100 µM | COLO 205 > 100 µM | MOLT-4 44.5 µM

CCOc1ccc(NCC2CC/C(=C\c3ccccc3OC)C2=O)cc1 (centres undefined)
inactive: RXF 393 8.91 µM | NCI-H522 1.94 µM | HOP-62 27.4 µM | SF-268 7.29 µM | HL-60 4.3 µM | CCRF-CEM 2.49 µM | UACC-62 11.8 µM | K562 2.7 µM | OVCAR-3 6.37 µM | SK-MEL-5 16.1 µM | UO-31 13.4 µM | UACC-257 7.38 µM | A498 19.6 µM | ACHN 14.6 µM | KM12 2.99 µM | SF-539 10.3 µM | SN12C 7.1 µM | NCI-H23 19.2 µM | COLO 205 2.29 µM | MOLT-4 2.75 µM

[O-][S+]1c2ccccc2N=C(c2cccc3ccccc23)CC1c1cccc2ccccc12 (centres undefined)
inactive: RXF 393 22.6 µM | NCI-H522 15 µM | HOP-62 34.2 µM | SF-268 22.2 µM | HL-60 10.8 µM | CCRF-CEM 20.5 µM | UACC-62 12.6 µM | K562 30.8 µM | OVCAR-3 19.1 µM | SK-MEL-5 5.52 µM | UO-31 23.9 µM | UACC-257 17.1 µM | A498 21.7 µM | ACHN 23.1 µM | KM12 15.2 µM | SF-539 19.5 µM | SN12C 16.6 µM | NCI-H23 20.3 µM | COLO 205 20.9 µM | MOLT-4 20.3 µM

COc1ccc(/N=N/c2c(N)nn(C)c2N)cc1
inactive: RXF 393 > 100 µM | NCI-H522 > 100 µM | HOP-62 > 100 µM | SF-268 > 100 µM | HL-60 > 100 µM | CCRF-CEM 92.7 µM | UACC-62 > 100 µM | K562 > 100 µM | OVCAR-3 > 100 µM | SK-MEL-5 > 100 µM | UO-31 > 100 µM | UACC-257 > 100 µM | A498 > 100 µM | ACHN > 100 µM | KM12 > 100 µM | SF-539 > 100 µM | SN12C > 100 µM | NCI-H23 > 100 µM | COLO 205 > 100 µM | MOLT-4 82.8 µM

CC(=O)O[C@H]1CC[C@@H](OC(C)=O)[C@H]2[C@H](O)[C@H](O)[C@@H]1n1c(=O)n(-c3ccccc3)c(=O)n12
inactive: RXF 393 > 100 µM | NCI-H522 > 100 µM | HOP-62 > 100 µM | SF-268 > 100 µM | HL-60 > 100 µM | CCRF-CEM > 100 µM | UACC-62 > 100 µM | K562 > 100 µM | OVCAR-3 > 100 µM | SK-MEL-5 > 100 µM | UO-31 > 100 µM | UACC-257 > 100 µM | A498 > 100 µM | ACHN > 100 µM | KM12 > 100 µM | SF-539 > 100 µM | SN12C > 100 µM | NCI-H23 > 100 µM | COLO 205 > 100 µM | MOLT-4 > 100 µM

C/C=C/C=C/[C@H]1Cc2cc(O)cc(O)c2O1
inactive: RXF 393 > 100 µM | NCI-H522 36.6 µM | HOP-62 > 100 µM | SF-268 > 100 µM | HL-60 26.1 µM | CCRF-CEM 30.8 µM | UACC-62 22.9 µM | K562 37.2 µM | OVCAR-3 33 µM | SK-MEL-5 49.7 µM | UO-31 29.4 µM | UACC-257 28.4 µM | A498 > 100 µM | ACHN 52.5 µM | KM12 61 µM | SF-539 > 100 µM | SN12C 55.3 µM | NCI-H23 51.5 µM | COLO 205 55 µM | MOLT-4 31.8 µM

O=C1C/C(=C/c2ccc(/C=C3/CC(=O)N(c4cccc(Br)c4)C3=O)cc2)C(=O)N1c1cccc(Br)c1
inactive: RXF 393 30.1 µM | NCI-H522 > 100 µM | HOP-62 > 100 µM | SF-268 > 100 µM | HL-60 > 100 µM | CCRF-CEM 66.1 µM | UACC-62 > 100 µM | K562 > 67 µM | OVCAR-3 > 100 µM | SK-MEL-5 > 100 µM | UO-31 > 100 µM | UACC-257 > 100 µM | A498 > 71 µM | ACHN > 100 µM | KM12 > 100 µM | SF-539 51.5 µM | SN12C > 100 µM | NCI-H23 > 100 µM | COLO 205 > 100 µM | MOLT-4 54.2 µM

CC1CN(CCO)CCN1c1ccccc1 (centres undefined)
inactive: RXF 393 > 100 µM | NCI-H522 > 100 µM | HOP-62 > 100 µM | SF-268 > 100 µM | HL-60 42 µM | UACC-62 > 100 µM | K562 > 100 µM | OVCAR-3 > 100 µM | SK-MEL-5 > 100 µM | UO-31 > 100 µM | UACC-257 > 100 µM | A498 > 100 µM | ACHN > 100 µM | KM12 > 100 µM | SF-539 > 100 µM | SN12C > 100 µM | NCI-H23 > 100 µM | COLO 205 > 100 µM | MOLT-4 1.41 µM

O=C1[C@H]2ON(c3ccccc3)C(c3ccc(Cl)cc3)[C@H]2C(=O)N1c1ccc(Cc2ccc(N3C(=O)[C@@H]4ON(c5ccccc5)C(c5ccc(Cl)cc5)[C@@H]4C3=O)cc2)cc1 (some centres undefined)
inactive: RXF 393 > 100 µM | NCI-H522 > 100 µM | HOP-62 > 100 µM | SF-268 > 100 µM | HL-60 > 100 µM | CCRF-CEM > 100 µM | UACC-62 > 100 µM | K562 > 100 µM | OVCAR-3 > 100 µM | SK-MEL-5 61.7 µM | UO-31 > 100 µM | UACC-257 > 100 µM | A498 > 100 µM | ACHN > 100 µM | KM12 > 100 µM | SF-539 > 100 µM | SN12C > 100 µM | NCI-H23 > 100 µM | COLO 205 > 100 µM | MOLT-4 > 100 µM

CN(N=O)C(=O)N[C@H]1C(O)O[C@H](CO)[C@@H](O)[C@@H]1O (some centres undefined)
inactive: RXF 393 600 µM | NCI-H522 578 µM | HOP-62 568 µM | SF-268 608 µM | HL-60 499 µM | CCRF-CEM 485 µM | UACC-62 550 µM | K562 498 µM | OVCAR-3 653 µM | SK-MEL-5 413 µM | UO-31 658 µM | UACC-257 600 µM | A498 593 µM | ACHN > 750 µM | KM12 625 µM | SF-539 612 µM | SN12C 581 µM | NCI-H23 614 µM | COLO 205 596 µM | MOLT-4 558 µM

Cc1ccc(-n2cc(-c3ccc(Cl)cc3)c(C#N)c2N)cc1
inactive: RXF 393 10.5 µM | NCI-H522 12.1 µM | HOP-62 17.9 µM | SF-268 18.7 µM | HL-60 4.1 µM | CCRF-CEM 15.5 µM | UACC-62 15.1 µM | K562 16.6 µM | OVCAR-3 15.6 µM | SK-MEL-5 16.1 µM | UO-31 13.2 µM | UACC-257 14.8 µM | A498 18.4 µM | ACHN 18.7 µM | SF-539 16.6 µM | SN12C 14.8 µM | NCI-H23 15.7 µM | COLO 205 14.1 µM

CCCCCC(/C=C/[C@@H]1[C@H]2CC(=O)O[C@H]2C[C@H]1N1CCOCC1)OC1CCCO1 (some centres undefined)
inactive: RXF 393 > 100 µM | NCI-H522 > 100 µM | HOP-62 > 100 µM | SF-268 > 100 µM | HL-60 > 100 µM | CCRF-CEM > 100 µM | UACC-62 > 100 µM | K562 > 100 µM | OVCAR-3 > 100 µM | SK-MEL-5 > 100 µM | UO-31 > 100 µM | UACC-257 > 100 µM | A498 > 100 µM | ACHN > 100 µM | KM12 > 100 µM | SF-539 > 100 µM | NCI-H23 > 100 µM | COLO 205 > 100 µM | MOLT-4 > 100 µM

CCOC(=O)CCC(NC(=O)N1CCN(c2c(C)nc(C)nc2O)CC1)C(=O)OCC (centres undefined)
inactive: RXF 393 > 100 µM | NCI-H522 > 100 µM | HOP-62 > 100 µM | SF-268 > 100 µM | HL-60 > 100 µM | CCRF-CEM > 100 µM | UACC-62 > 100 µM | K562 > 100 µM | OVCAR-3 > 100 µM | UO-31 > 100 µM | UACC-257 > 100 µM | A498 > 100 µM | ACHN > 100 µM | KM12 > 100 µM | SF-539 > 100 µM | SN12C > 100 µM | NCI-H23 > 100 µM | COLO 205 > 100 µM | MOLT-4 > 100 µM
